# Experiment: Phase 1 dose-escalation: tolerability and safety (DLTs, adverse events, CTCAE v4.0)
# Type: in vivo
# Experimental: This was a non-randomized, single-arm, open-label, Phase 1, dose-escalation study of oral LY3023414 in Japanese patients with advanced malignancies. A modified 3 + 3 dose-escalation method was used to evaluate the dose-limiting toxicity (DLT) of LY3023414. Enrollment of 3 patients and 6 patients were planned for dose level 1 (150 mg) and dose level 2 (200 mg), respectively. Dose-escalation decisions were made by agreement between investigators and the sponsor, with a consultation with the Safety Assessment Committee (SAC), as needed. If 2 patients experienced DLTs at any given dose, the sponsor examined safety data and consulted the SAC. Following consultation, the sponsor and investigators decided whether the dose was intolerable or additional patients were to be enrolled to the same or an intermediate dose level for further investigation. If ≥3 patients experienced DLTs at any given dose, the dose was considered intolerable for Japanese patients. No intrapatient dose escalation was allowed.
# The study evaluated 2 dose levels, 150 mg or 200 mg LY3023414 monotherapy administered in the morning and evening, approximately 12 h apart. The cycle was of 21 days. […] No dose reductions were allowed during Cycle 1, unless a DLT was reported. Dose reductions were allowed in Cycle 2 and beyond at the discretion of the investigator. Patients were treated until a discontinuation criterion was met.
# Tolerability and safety were assessed through clinical and laboratory evaluations at weekly intervals for the first 2 cycles and at least every 2 weeks thereafter. Adverse events (AEs) were graded according to the Common Terminology Criteria for Adverse Events Version 4.0 and coded to Medical Dictionary for Regulatory Activities preferred terms. All patients who received ≥1 dose of the study drug were included in the safety analysis.
# A DLT was defined as any AE during Cycle 1 which was possibly related to study treatment with LY3023414 and fulfilled any of the following main criteria: Grade ≥ 3 non-hematological toxicity (except nausea, vomiting, diarrhea, constipation, anorexia, skin rash, or asymptomatic electrolyte abnormality for ≤3 days and responsive to appropriate treatment; transient ≤5 days hyperglycemia; and transient ≤7 days mucositis), Grade 4 hematological toxicity of ≥7 days, Grade 3 thrombocytopenia with Grade ≥ 2 bleeding or febrile neutropenia, requirement of platelet or packed red blood transfusion, and any toxicities requiring dose omissions of >20% of intended doses in Cycle 1. The maximum tolerated dose was defined as the highest dose of LY3023414 not causing a DLT in more than 33% of patients.
structure (smiles),measurement,setting,value
CO[C@@H](C)Cn1c(=O)n(C)c2cnc3ccc(-c4cncc(C(C)(C)O)c4)cc3c21 [LY3023414],Maximum tolerated dose,"BID dosing, Japanese patients",200 mg
same,Fatal events,due to AEs or any other reason,no fatal events
same,"ALT increased, AE possibly related to study drug","human, in vivo",3 (25.0) n (%)
same,"AST increased, AE possibly related to study drug","human, in vivo",3 (25.0) n (%)
same,"Anemia, AE possibly related to study drug","human, in vivo",5 (41.7) n (%)
same,"Appetite decreased, AE possibly related to study drug","human, in vivo",7 (58.3) n (%)
same,"Blood creatinine increased, AE possibly related to study drug","human, in vivo",4 (33.3) n (%)
same,"Diarrhea, AE possibly related to study drug","human, in vivo",5 (41.7) n (%)
same,Drug-related Grade 4 or 5 AEs,"human, in vivo",No drug-related Grade 4 or 5 AEs
same,"Fatigue, AE possibly related to study drug","human, in vivo",4 (33.3) n (%)
same,"Hyperglycemia, AE possibly related to study drug","human, in vivo",4 (33.3) n (%)
same,"Hypokalemia, AE possibly related to study drug","human, in vivo",2 (16.7) n (%)
same,"Hypophosphatemia, AE possibly related to study drug","human, in vivo",4 (33.3) n (%)
same,"Hypotension, AE possibly related to study drug","human, in vivo",2 (16.7) n (%)
same,"Nausea, AE possibly related to study drug","human, in vivo",8 (66.7) n (%)
same,Patients with at least 1 dose adjustment,"human, in vivo",33.3%
same,Patients with serious AEs,"human, in vivo",3 patients
same,"Platelet count decreased, hematological AE possibly related to study drug","human, in vivo",5 (41.7) n (%)
same,"Proteinuria, AE possibly related to study drug","human, in vivo",4 (33.3) n (%)
same,"Pruritis, AE possibly related to study drug","human, in vivo",3 (25.0) n (%)
same,"Pyrexia, AE possibly related to study drug","human, in vivo",2 (16.7) n (%)
same,"Rash, AE possibly related to study drug","human, in vivo",3 (25.0) n (%)
same,"Stomatitis, AE possibly related to study drug","human, in vivo",9 (75.0) n (%)
same,"Vomiting, AE possibly related to study drug","human, in vivo",4 (33.3) n (%)
same,"WBC count decreased, hematological AE possibly related to study drug","human, in vivo",2 (16.7) n (%)
same,"Weight decreased, AE possibly related to study drug","human, in vivo",2 (16.7) n (%)
same,"anemia, related AE Grade ≥ 3, patients","human, in vivo",16.7%
same,"anemia, treatment-related AE, patients","human, in vivo",41.7%
same,"decreased appetite, treatment-related AE, patients","human, in vivo",58.3%
same,"decreased platelet count, treatment-related AE, patients","human, in vivo",41.7%
same,"decreased weight, treatment-related AE, patients","human, in vivo",16.7%
same,"decreased white blood cell count, treatment-related AE, patients","human, in vivo",16.7%
same,"diarrhea, treatment-related AE, patients","human, in vivo",41.7%
same,"fatigue, treatment-related AE, patients","human, in vivo",33.3%
same,"hyperglycemia, related AE Grade ≥ 3, patients","human, in vivo",16.7%
same,"hyperglycemia, treatment-related AE, patients","human, in vivo",33.3%
same,"hypokalemia, treatment-related AE, patients","human, in vivo",16.7%
same,"hypophosphatemia, related AE Grade ≥ 3, patients","human, in vivo",16.7%
same,"hypophosphatemia, treatment-related AE, patients","human, in vivo",33.3%
same,"hypotension, treatment-related AE, patients","human, in vivo",16.7%
same,"increased alanine aminotransferase, treatment-related AE, patients","human, in vivo",25.0%
same,"increased aspartate aminotransferase, treatment-related AE, patients","human, in vivo",25.0%
same,"increased blood creatinine, treatment-related AE, patients","human, in vivo",33.3%
same,"nausea, treatment-related AE, patients","human, in vivo",66.7%
same,"proteinuria, treatment-related AE, patients","human, in vivo",33.3%
same,"pruritus, treatment-related AE, patients","human, in vivo",25.0%
same,"pyrexia, treatment-related AE, patients","human, in vivo",16.7%
same,"rash, treatment-related AE, patients","human, in vivo",25.0%
same,"stomatitis, related AE Grade ≥ 3, patients","human, in vivo",16.7%
same,"stomatitis, treatment-related AE, patients","human, in vivo",75.0%
same,"vomiting, treatment-related AE, patients","human, in vivo",33.3%
same,Dose-limiting toxicities (DLTs),in vivo,No DLTs
same,Patients with at least 1 AE considered possibly related to the study drug,in vivo,All patients
